# Measured values published in patent publication EP1196153B1, “PROCESS FOR THE IMPROVEMENT OF SPERMATOZOA FERTILIZATION ACTIVITY” (Applied Research Systems ARS Holding N.V., priority 1999, dated 2001).
# What was measured:
# Format in all cases: cell-based, human
# [1] = system: swim-up selected spermatozoa; test: Forward motility of H2O2 treated swim-up selected spermatozoa; details: for forward motility: n=12
# Description: It is well known that reactive oxygen species (ROS), which may be generated during sperm preparation for IVF, exert detrimental effects on sperm fertilization potential. In particular, among ROS, H2O2 strongly reduces motility when added to sperm samples at micromolar concentrations. Therefore, the effect of LY294002 on H2O2 treated sperm cells was evaluated. The compound was added to swim-up selected spermatozoa samples from oligoasthenospermic patients in amounts of 10 µM either alone or in combination with 200 µM of H2O2. […]
# [2] = system: swim-up selected spermatozoa; test: Forward motility of LiCl treated swim-up selected spermatozoa; details: 10 µM, two hours, with or without different concentrations of LiCl; Fig. 7
# From the text: LiCl is also a known inhibitor of sperm cell motility.
# [3] = system: spermatozoa; test: Sperm viability by eosin test and hypo-osmotic swelling; details: 100 µM
# Description: The effect of 100µM of LY294002 on the viability of the spermatozoa was also assessed (see insert of Fig. 3).
# [4] = system: spermatozoa obtained by the swim-up method; test: Motility of spermatozoa after incubation and swim-up selection
# From the text: In the experiments the following examples are based on, standard methods of in vitro fertilization have been used. With regard to the details of these methods, reference is made to the "WHO manual" (WHO laboratory manual for the examination of human semen and sperm-cervical mucus interactions, 4th edtition, Cambridge University Press 1999). In particular, the direct swim-up method can be taken from pp. 104 to 106 of this manual. […]
# Fig. 3 summarizes the results obtained in a similar experiment on samples from higher numbers of patients. The sperm cells were submitted to the swim-up selection method.
# An improvement of percentage progressive motility after 2 hours of incubation of the sperm cells with LY294002 was clearly detectable, both on the rapid component (a) and on the rapid and slow component (a+b).
# The experiments described above were performed on samples from oligoasthenospermic individuals. The effects on the stimulation of progressive motility by LY294002 are more pronounced the more serious the sperm pathology of patients is (oligospermia, asthenospermia, teratospermia). However, the effect of this compound could also be observed in normospermic subjects. […]
# [5] = system: spermatozoa; test: Motility of spermatozoa in seminal liquid, evaluated blindly under the microscope (WHO manual)
# Description: (§1) In the experiments the following examples are based on, standard methods of in vitro fertilization have been used. With regard to the details of these methods, reference is made to the "WHO manual" (WHO laboratory manual for the examination of human semen and sperm-cervical mucus interactions, 4th edtition, Cambridge University Press 1999). In particular, the direct swim-up method can be taken from pp. 104 to 106 of this manual.
# Spermatozoa were prepared according to the standard procedures of IVF. Briefly, spermatozoa were prepared from 3 oligoasthenospermic subjects undergoing semen analysis for couple infertility after informed consent. 10 µM of the PI3K inhibitor LY294002 were added directly to the seminal liquid and incubated for 2 hours […] at 37°C and 5% CO2. The motility of the spermatozoa was then blindly evaluated under the microscope according to WHO manual procedures.
# (§2) The compound was added in a concentration of 10 µM.
# [6] = system: spermatozoa; test: Total sperm cell recovery in swim-up selection; details: n=20
# Description: as §1, §2
# Table II summarizes the total sperm cell recovery in the swim-up, which was increased by 43% as compared to the control.
# [7] = system: spermatozoa; test: Computer aided sperm analysis (CASA) of sperm parameters; details: 10 µM; 12 oligoasthenospermic subjects; vs control sample; Fig. 6
# Description: These parameters were determined by computer aided sperm analysis (CASA) in sperm samples from 12 different oligoasthenospermic subjects.
# [8] = 10 µM, 2 hours of incubation, 12 individual patients, swim-up, Fig. 4
smiles,measurement,setting,value
OO [H2O2],forward motility,"[1]; 200 µM H2O2 alone, oligoasthenospermic patients, control 45.4±5.0, P<0.0001 vs Control",26.5±4.9 (n=12) %
"O=c1cc(N2CCOCC2)oc2c(-c3ccccc3)cccc12 [LY294002, 2-(4-morpholinyl)-8-phenyl-4H-1-benzopyran-4-one]",LiCl induced inhibition of sperm motility,[2],reversing the effect
same,sperm viability,[3]; 48 hours of incubation (not shown),no effect on sperm viability
same,vitality of the cells,"[3]; incubation for two hours, eosin test and hypo-osmotic swelling",did not alter the vitality
same,"percentage progressive motility, rapid and slow component (a+b)",[4]; [8],improvement
same,"percentage progressive motility, rapid component (a)",[4]; [8],improvement
same,forward motility of spermatozoa,"[4]; 10 µM, two hours, then swim-up selection, 88 randomly selected subjects, control 53.5 ± 2.0 %",76.3 ± 1.5%
same,additional enhancement of spermatozoa motility,"[4]; 100 µM compared with 10 µM, swim-up, Fig. 3",about 10%
same,progressive motility,"[4]; 100 µM, 2 hours, then swim-up selection, 7 samples, Fig. 2",significant increase
same,activation at 10 µM,"[4]; Homo sapiens, Spermatozoa, 10 µM, 21 patients vs control 40 patients, swim-up, Fig. 3, read-out: increase in the progressive motility as compared to the control",58%
same,activation at 100 µM,"[4]; Homo sapiens, Spermatozoa, 100 µM, 29 patients vs control 40 patients, swim-up, Fig. 3, read-out: increase of the motility as compared to the control",67%
same,EC50,"[4]; Homo sapiens, Spermatozoa, samples from normospermic individuals, 0 to 1000 µM, swim-up, Fig. 5, read-out: EC50 (effect dose of 50%) on the rapid forward motility",~1000 nM
same,"% Sperm Forward Motility, Swim up-selected sperm","[4]; LY 10 µM added to seminal plasma, then swim-up, 20 oligoasthenospermic patients, control 54.2±4.5, p<0.001",68.6±3.9%
same,rapid motility (a) of the spermatozoa in the seminal liquid,"[5]; 10 µM, 2 hours, 37°C, 5% CO2, 3 oligoasthenospermic subjects, Fig. 1",increase of rapid motility
same,percentage of forward motility (rapid and slow component a + b) in the seminal liquid,"[5]; 10 µM, 2 hours, 37°C, 5% CO2, 3 oligoasthenospermic subjects, Fig. 1B",increase
same,"% Sperm Forward Motility, Sperm in Seminal Plasma","[5]; LY 10 µM added to seminal plasma, 20 oligoasthenospermic patients, control 35.7±5.1, p<0.001",49.8±4.7%
same,increase of total sperm cell recovery in the swim-up vs control,[6]; 10 µM,43%
same,Sperm recovery in swim up,"[6]; LY 10 µM, control 13.3 ± 3.9, p<0.005",19.0 ± 4.8 10^6
same,average path velocity (VAP),[7],increased in a statistically significant manner
same,hyperactivated sperm fraction (HA),[7],increased in a statistically significant manner
same,percentage curvilinear velocity (VCL),[7],increased in a statistically significant manner
same,straight-line velocity (VSL),[7],increased in a statistically significant manner
same,detrimental effects exerted by 200 µM H2O2 on sperm motility,[1]; 10 µM LY294002 added to the incubation medium,completely reversed
same,forward motility,"[1]; 10 µM LY294002 in combination with 200 µM H2O2, P<0.002 vs H2O2",52.6±5.5 (n=12) %
same,forward motility,"[1]; 10 µM alone, oligoasthenospermic patients, control 45.4±5.0, P<0.0001 vs Control",71.7±3.2 (n=12) %
